Assay results as given in patent US11591315B2, “Substituted pyrazole-pyrimidines, variants thereof, and uses therefore” (Afferent Pharmaceuticals, Inc., priority 2016, dated 2023).

Legend:
human P2X2/3 channels = target: T1, human P2X2/3 channels (Homo sapiens, UniProt P56373+Q9UBL9); test: FlexStation calcium fluorescence assay, 1321N1 cells stably transfected with human P2X2 and P2X3 (heteromeric P2X2/3 channels); assay type: cell-based; details: 1321N1-hP2X2/3 cells, Fluo-4 dye, agonist ATP, 20 minutes incubation; read-out: Average pIC50 P2X2/3 (converted)
T1 construct: expressed in transfected cells; host or cells: 1321N1 human astrocytoma cells (1321N1-hP2X2/3)
T1 sequence (P56373 1-397): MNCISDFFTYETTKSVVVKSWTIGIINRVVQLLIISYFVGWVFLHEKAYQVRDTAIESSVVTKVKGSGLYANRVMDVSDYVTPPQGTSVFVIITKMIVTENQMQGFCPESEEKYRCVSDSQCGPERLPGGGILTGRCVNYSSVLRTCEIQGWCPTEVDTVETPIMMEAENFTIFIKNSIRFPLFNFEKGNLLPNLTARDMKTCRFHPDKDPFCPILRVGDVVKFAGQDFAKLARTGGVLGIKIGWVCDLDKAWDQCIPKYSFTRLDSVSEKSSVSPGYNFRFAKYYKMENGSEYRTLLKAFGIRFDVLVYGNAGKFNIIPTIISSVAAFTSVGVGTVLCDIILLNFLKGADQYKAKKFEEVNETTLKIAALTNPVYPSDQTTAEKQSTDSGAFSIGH
T1 sequence (Q9UBL9 1-471): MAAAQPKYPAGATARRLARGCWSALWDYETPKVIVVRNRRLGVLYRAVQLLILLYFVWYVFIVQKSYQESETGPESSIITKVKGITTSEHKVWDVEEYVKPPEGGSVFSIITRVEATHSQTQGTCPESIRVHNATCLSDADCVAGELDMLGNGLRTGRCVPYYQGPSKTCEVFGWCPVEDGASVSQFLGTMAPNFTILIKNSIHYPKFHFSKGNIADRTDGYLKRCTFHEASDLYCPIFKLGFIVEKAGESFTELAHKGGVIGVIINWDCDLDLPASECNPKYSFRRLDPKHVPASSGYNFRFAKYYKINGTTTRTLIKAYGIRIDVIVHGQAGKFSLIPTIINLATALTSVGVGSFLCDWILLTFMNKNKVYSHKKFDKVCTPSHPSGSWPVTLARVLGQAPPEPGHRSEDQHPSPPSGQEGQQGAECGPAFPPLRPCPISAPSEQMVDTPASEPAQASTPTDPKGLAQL
Method: (§1) 1321N1 human astrocytoma and HEK293 human embryonic kidney cells were stably transfected with human P2X2 and P2X3 receptor subunits to form heteromeric P2X2/3 channels and passaged in flasks. Additionally, HEK293 cells were stably transfected with human P2X3 receptor subunits to form homomeric P2X3 channels.
(§2) Approximately 24 hours before the FlexStation calcium fluorescence experiment, cells were released from their flasks, centrifuged and re-suspended in nutrient medium. The cells were aliquoted into black-wall, clear-bottom 96 well plates at a density of 25,000 cells per well and incubated overnight in a humidified, CO2-enriched (5%) atmosphere at 37° C. […]
(§3) After 20 minutes incubation at room temperature and protected from light, the assay plates were loaded into the FlexStation microplate reader and baseline fluorescence measured with an excitation wavelength of 485 nm and emission wavelength readings centered at 525 nm (515 nm cut off).
(§4) The agonist was dispensed by the FlexStation during fluorescence measurement to construct agonist activation and antagonist inhibition curves. […] Peak fluorescence was measured and curves generated using a four parameter nonlinear regression equation. […]

human P2X3 receptor = target: T2, human P2X3 receptor (Homo sapiens, UniProt P56373); test: FlexStation calcium fluorescence assay, HEK293 cells stably transfected with human P2X3 (homomeric P2X3 channels); assay type: cell-based; details: HEK-hP2X3 cells, Calcium 6 dye, agonist 1 μM α,β-meATP, 20 minutes incubation; read-out: Average pIC50 P2X3 (converted)
T2 construct: expressed in transfected cells; host or cells: HEK293 human embryonic kidney cells (HEK-hP2X3)
T2 sequence (P56373 1-397): T1 sequence (P56373 1-397)
Method: as §1, §2, §3, §4

Row | IC50 (human P2X2/3 channels) [nM] | IC50 (human P2X3 receptor) [nM] | Compound
1 | > 10000 | 6920 | CCOc1cc(Oc2cnc(N)nc2N)n(C(C)C)n1 [Compound 1]
2 | 1950 | 288 | COc1cc(Oc2cnc(N)nc2N)n(C(C)C)n1 [Compound 2]
